Experimental data taken from publication PMC7349657, “Efficient Targeted Degradation via Reversible and Irreversible Covalent PROTACs” (Journal of the American Chemical Society, 2020).

How the values were obtained:
BTK kinase domain = biological target: T1, BTK kinase domain (Homo sapiens, UniProt Q06187); assay: LC-MS covalent binding and ibrutinib competition assay with recombinant BTK kinase domain; conditions: for protein labeled by the PROTAC / formation of covalent complex with BTK: 3 μM compound + 2 μM BTK; for protein labeled by the PROTAC / displacement by ibrutinib (ibrutinib adduct formation) / formation of covalent complex with BTK: LC-MS; for displacement by ibrutinib (ibrutinib adduct formation): 40 μM ibrutinib added to preformed complex; for displacement by ibrutinib (ibrutinib adduct formation) / time scale of exchange / dissociation of the covalent complex: 37 °C; for time scale of exchange / dissociation of the covalent complex: 40 μM ibrutinib
T1 construct: human BTK kinase domain (residues 387–659); 6xHis (N, cleaved yes); TEV protease cleavage site (N, cleaved yes); made in house; virus produced in Sf9, expression in Tni insect cells
Method: We also used LC-MS to directly observe the formation of covalent complexes with recombinant BTK and measure their dissociation kinetics (Figure 6C, D, Supporting Figure 5A).
Binding experiments were performed in Tris 20 mM pH = 8, 50 mM NaCl, and 1 mM DTT. BTK kinase domain was diluted to 2 μM in buffer, and 3 μM PROTAC was added by adding 1/100th volume from a 300 μM solution. The PROTACs were incubated with BTK at room temperature for various times. For testing by LCMS, 24 μL of the solution was mixed with 6 μL of 2.4% formic acid, and 10 μL was injected to LCMS.
For binding experiments in the presence of glutathione, freshly dissolved reduced glutathione was incubated at 6.14 mM with 4 μM compounds for 30 min at room temperature in Tris 20 mM pH = 8 and 50 mM NaCl. At this point BTK was added to a concentration of 2 μM (diluting the GSH to 5 mM and the compounds to 3.25 μM), and LC-MS was used as described previously to follow the covalent labeling of BTK.
For data analysis, the raw spectra were deconvoluted using a 27 000:37 000 Da window and 1 Da resolution. The signal from masses 27 000:30 000 and 34 000:37 000 (which contained no peaks) was averaged and subtracted from the whole signal.
Cloning and Over Expression of BTK
Human wild type BTK full length was obtained from the ORFeome (ref: http://www.orfeomecollaboration.org/), from which the full human BTK gene (clone HsCD00433457) was inserted into the mammalian expression vector pCDNA3.1. In parallel, a mutant BTK C481S was constructed by assemble 2 PCR products harboring the desired mutation and cloned into pCDNA3.1. Both constructs contain a C -terminal 6x-His tag and three amino acids sequence (GTK) linker between the BTK coding sequence and the His tag.
The expression of hBTK is driven by the CMV promoter. U2OS cells (ATCC HTB-96) were grown to 70% confluency in a 10 cm plate, transfected with either hBTK plasmid (BTK WT or C481S) using Lipofectamine 2000 reagent (Thermo Fisher Scientific) according to manufacturer’s instructions. Cells were subsequently incubated for 48 hours post transfection, trypsinized and resuspended in 12 mL medium, and divided 2 mL per well in a 6-well plates and left to adhere over-night. 72 hours post transfection 100 nM PROTACs were added for 24 hours and BT K was measured by performing western blot procedure as described in the main […]
Expression and Purification of Recombinant BTK
The expression and purification of human BTK kinase domain (residues 387–659) was based on the method used by Bradsha w JM. et al1. The kinase domain was inserted into pFastBac-1 with an N-terminal 6× -His tag followed by a TEV protease cleavage site (The plasmid was a gift from Dr. Ville Paavilainen, University of Helsinki). Viruses were produced […]
cells by infection of 2 L of cultured cells with 1:200 mL virus solution such that cell growth was terminated after 3 days. The cells were collected by centrifugation (800 g for 15 minutes), and the pellet was resu spended in 50 mL ly sis buf fer (10 mM Hepes, pH 7.5, 400 mM NaCl, 1.5 mM DTT) supplemented with 1× protease inhibitor cocktail (Roche). The cells were lysed by five passages through a cell homogenizer. The cellular debris wer e pelleted by centrifugation (30,000 g for 30 minutes). The protein was bound in batch to nickel– nitrilotriacetic acid agarose beads in binding buffer (lysis buffer supplemented with 20 mM imidazole) for 4 hours at 4°C. The beads were washed with additional binding buffer ( four 5 mL washes), and the protein was eluted with four 0.5 mL portions of elution buffer (lysis buffer […]
supplemented with 300 mM imidazole). The His tag was cleaved by the addition of TEV protease with concomitant dialysis overnight into cleavage buffer (50 mM Tris, pH 8.0, 0.5 mM EDTA, 1 mM DTT) at 4°C. The resulting soluble protein was passed ov er Ni -NTA beads to remove the protease and purified further by gel filtration on a HiLoad_16/60_Superdex_75 (GE Healthcare) column equilibrated with 20 mM Tris, pH 8.0, 50 mM NaCl, 1 mM DTT. The […]

primary mouse B cells = assay: B cell activation after anti-IgM stimulation, CD86 staining; assay type: cell-based
Method: Lastly, we assessed the ability of the PROTACs to abrogate the activation of primary mouse B cells in response to B cell receptor stimulation. For this purpose, primary B cells were treated with anti-IgM for 18 h,[36],[37] followed by staining for CD86, a B cell activation surface marker (Figure 8; Supporting Figure 7). […]
supplemented with 300 mM imidazole). The His tag was cleaved by the addition of TEV protease with concomitant dialysis overnight into cleavage buffer (50 mM Tris, pH 8.0, 0.5 mM EDTA, 1 mM DTT) at 4°C. The resulting soluble protein was passed ov er Ni -NTA beads to remove the protease and purified further by gel filtration on a HiLoad_16/60_Superdex_75 (GE Healthcare) column equilibrated with 20 mM Tris, pH 8.0, 50 mM NaCl, 1 mM DTT. The pure protein was then flash-frozen in liquid nitrogen and stored at −80°C.
C57BL/6 mice were purchased from Harlan (Rehovot, Israel) and maintained in a pathogen-free facility, experiments were carried on 8-12 weeks old male mice. All exp eriments with mice were approved by the Weizmann Institute Animal Care and Use Committee.
Splenic cells from C57BL/6 mice were isolated by forcing spleen tissue through mesh into PBS containing 2% fetal calf serum and 1 mM EDTA and red blood cells were depleted by lysis buffer. Cells were cultured in 96-well U-b ottom dishes (1x10^6 cells/m L in RPMI 10% […]
nM, 10 nM, 1 nM, 0.1 nM) for 24 hours at 37° C in 5% humidified CO2 incubator. Following a 24 hours incubation, cells were stimulated with anti-IgM overnight (5 µg/mL, Sigma-Aldrich). Subsequently, cells were stained with anti-B220 (clone RA3-6B2, Biolegend) and anti-CD86 (clone GL-1, Biolegend) antibodies for 30 minutes at 4°C. Single cell suspensions were analyzed by a flow cytometer (CytoFlex, Beckman Coulter).
Cells were analyzed by intensity based, label-free mass spectrometry based proteomics.
Sample preparation: 106 Ramos cells were treated in four replicates with either compound or DMSO for 24 hours. Cells were then washed twice by centrifuge at 200 rcf, 4°C for 5 minutes, removing the supernatant and washed with ice cold PBS. Samp les were then centrifuged at 200 rcf, 4°C for 5 minutes, then supernatant was removed and samples were frozen at -80°C.
Samples were dispersed in 75 µl of 50 mM ammonium bicarbonate, and transferred to 1.8 mL glass vials. 75 µl of 10% SDS in 50 mM ammonium bicarbonate were added and the samples were heated to 96° C for 6 minutes. The samples were sonicated thoroughly in a sonication bath until the DNA was sheared as indicated by reduction in viscosity to level enabling easy pipettation. Total protein concentration was estimated using BCA as say and 30 µg from each sample was taken for the experiment.

[1] = anti-IgM stimulation, PROTAC 24 h

T1 sequence (Q06187 387-659): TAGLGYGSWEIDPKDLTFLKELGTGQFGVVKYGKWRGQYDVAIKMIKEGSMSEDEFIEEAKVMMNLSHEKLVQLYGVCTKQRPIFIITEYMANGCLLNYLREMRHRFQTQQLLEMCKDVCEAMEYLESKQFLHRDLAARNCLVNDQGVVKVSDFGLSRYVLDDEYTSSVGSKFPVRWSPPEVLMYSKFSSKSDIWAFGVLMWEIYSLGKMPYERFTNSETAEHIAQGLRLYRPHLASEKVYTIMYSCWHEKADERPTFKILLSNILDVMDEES

protein labeled by the PROTAC (BTK kinase domain) | formation of covalent complex with BTK (BTK kinase domain; room temperature) | time scale of exchange / dissociation of the covalent complex (BTK kinase domain) | ibrutinib labeling of BTK in presence of the PROTAC (BTK kinase domain; 4 μM ibrutinib, 1 h, room temperature) | time to full ibrutinib labeling of BTK in presence of preincubated PROTAC (BTK kinase domain; 4 μM ibrutinib, room temperature) | SMILES | displacement by ibrutinib (ibrutinib adduct formation) (BTK kinase domain) | inhibition of B cell activation (CD86) (primary mouse B cells; [1]) | inhibition of B cell activation compared to ibrutinib (primary mouse B cells; [1]) | inhibition of B cell activation compared to ibrutinib (primary mouse B cells; at 1 μM)
80–85% |  |  |  |  | Nc1ncnc2c1c(-c1ccc(Oc3ccccc3)cc1)nn2C1CCCN(C(=O)C=CCOCCOCCOCCOCCOCCOc2cccc3c2C(=O)N(C2CCC(=O)NC2=O)C3=O)C1 (stereo not drawn) [IR-1] | no ibrutinib adduct was observed even after 28 h |  |  | 
80–85% |  |  |  |  | Nc1ncnc2c1c(-c1ccc(Oc3ccccc3)cc1)nn2C1CCCN(C(=O)C=CCCCCOCCOCCOCCOCCOc2cccc3c2C(=O)N(C2CCC(=O)NC2=O)C3=O)C1 (stereo not drawn) [IR-2] | no ibrutinib adduct was observed even after 28 h | strongest effect | superior inhibition compared to ibrutinib | 
 | extremely fast | 10 to 20 h |  |  | CC(C)(C=C(C#N)C(=O)N1CCCC(n2nc(-c3ccc(Oc4ccccc4)cc3)c3c(N)ncnc32)C1)CCCOCCOCCOCCOCCOc1cccc2c1C(=O)N(C1CCC(=O)NC1=O)C2=O (stereo not drawn) [RC-3] | gradual displacement of the PROTAC by ibrutinib |  |  | superior activity to ibrutinib
 | forms no covalent adduct |  | 100% | ≤ 1 h | Nc1ncnc2c1c(-c1ccc(Oc3ccccc3)cc1)nn2C1CCCN(C(=O)CCCCCCOCCOCCOCCOCCOc2cccc3c2C(=O)N(C2CCC(=O)NC2=O)C3=O)C1 (stereo not drawn) [NC-1] |  | strongest effect | superior inhibition compared to ibrutinib | 
 |  | 10 to 20 h |  |  | N#CC(=CCCCCOCCOCCOCCOCCOc1cccc2c1C(=O)N(C1CCC(=O)NC1=O)C2=O)C(=O)N1CCCC(n2nc(-c3ccc(Oc4ccccc4)cc3)c3c(N)ncnc32)C1 (stereo not drawn) [RC-2] | gradual displacement of the PROTAC by ibrutinib |  |  | superior activity to ibrutinib
